Several values for one entry are separate records, joined by “and”; a condition that tells them apart may be missing. Identical values can stand only once. Toxic doses and inconclusive results are not listed.
Test system: CD2F1 mice, L1210 leukemia ip, survival T/C
Assay: NCI In Vivo Anticancer Drug Screen. Data for tumor model L1210 Leukemia (intraperitoneal) in CD2F1 (CDF1) mice
Conditions: higher = longer survival
How it was run: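 In this screen, transplantable tumors were grown in mice given either the compound or its vehicle. Results were expressed as the treated measurement relative to the control measurement.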

[1] = endpoint: mean survival time, dose: 100.0 mg/kg/injection, schedule: Q01DX009 (ip), vehicle: Klucel (hydroxypropylcellulose) (HPC)
[2] = endpoint: mean survival time, dose: 200.0 mg/kg/injection, schedule: Q01DX009 (ip), vehicle: Klucel (hydroxypropylcellulose) (HPC)
[3] = endpoint: mean survival time, dose: 25.0 mg/kg/injection, schedule: Q04DX003 (ip), vehicle: saline with Tween-80
[4] = endpoint: mean survival time, dose: 50.0 mg/kg/injection, schedule: Q04DX003 (ip), vehicle: saline with Tween-80
[5] = endpoint: mean survival time, dose: 100.0 mg/kg/injection, schedule: Q04DX003 (ip), vehicle: saline with Tween-80
[6] = endpoint: mean survival time, dose: 200.0 mg/kg/injection, schedule: Q04DX003 (ip), vehicle: saline with Tween-80
[7] = endpoint: mean survival time, dose: 400.0 mg/kg/injection, schedule: Q04DX003 (ip), vehicle: saline with Tween-80
[8] = endpoint: mean survival time, dose: 100.0 mg/kg/injection, schedule: Q01DX009 (ip), vehicle: saline with Tween-80
[9] = endpoint: mean survival time, dose: 200.0 mg/kg/injection, schedule: Q01DX009 (ip), vehicle: saline with Tween-80
[10] = endpoint: mean survival time, dose: 400.0 mg/kg/injection, schedule: Q01DX009 (ip), vehicle: saline with Tween-80
[11] = endpoint: mean survival time, dose: 100.0 mg/kg/injection, schedule: Q04DX002 (ip), vehicle: saline with Tween-80
[12] = endpoint: mean survival time, dose: 200.0 mg/kg/injection, schedule: Q04DX002 (ip), vehicle: saline with Tween-80
[13] = endpoint: median survival time, dose: 12.5 mg/kg/injection, schedule: Q01DX009 (ip), vehicle: saline with Tween-80
[14] = endpoint: median survival time, dose: 25.0 mg/kg/injection, schedule: Q01DX009 (ip), vehicle: saline with Tween-80
[15] = endpoint: mean survival time, dose: 12.5 mg/kg/injection, schedule: Q01DX009 (ip), vehicle: saline with Tween-80
[16] = endpoint: mean survival time, dose: 25.0 mg/kg/injection, schedule: Q01DX009 (ip), vehicle: saline with Tween-80
[17] = endpoint: mean survival time, dose: 50.0 mg/kg/injection, schedule: Q01DX009 (ip), vehicle: saline with Tween-80

## Nc1nc2ncn(O)c2c(=O)[nH]1
endpoint: median survival time, dose: 3.12 mg/kg/injection, schedule: Q01DX009 (ip), vehicle: other
  T/C: 176 % of control
endpoint: median survival time, dose: 6.25 mg/kg/injection, schedule: Q01DX009 (ip), vehicle: other
  T/C: 195 % of control
endpoint: median survival time, dose: 6.25 mg/kg/injection, schedule: Q01DX009 (ip), vehicle: water
  T/C: 168 % of control and 172 % of control
endpoint: median survival time, dose: 12.5 mg/kg/injection, schedule: Q01DX009 (ip), vehicle: other
  T/C: 162 % of control
endpoint: median survival time, dose: 12.5 mg/kg/injection, schedule: Q01DX009 (ip), vehicle: water
  T/C: 168 % of control and 234 % of control
endpoint: median survival time, dose: 25.0 mg/kg/injection, schedule: Q01DX009 (ip), vehicle: other
  T/C: 101 % of control
endpoint: median survival time, dose: 25.0 mg/kg/injection, schedule: Q01DX009 (ip), vehicle: water
  T/C: 164 % of control

## CCNc1cc(Cl)c(C(=O)O)cc1[N+](=O)[O-]
endpoint: mean survival time, dose: 100.0 mg/kg/injection, schedule: Q04DX003 (ip), vehicle: saline
  T/C: 105 % of control
endpoint: mean survival time, dose: 200.0 mg/kg/injection, schedule: Q04DX003 (ip), vehicle: saline
  T/C: 110 % of control
endpoint: mean survival time, dose: 400.0 mg/kg/injection, schedule: Q04DX003 (ip), vehicle: saline
  T/C: 115 % of control

## CC(=O)NCCc1ccccc1
[1]
  T/C: 109 % of control
endpoint: mean survival time, dose: 100.0 mg/kg/injection, schedule: Q04DX003 (ip), vehicle: saline sonified
  T/C: 103 % of control
[2]
  T/C: 102 % of control
endpoint: mean survival time, dose: 200.0 mg/kg/injection, schedule: Q04DX003 (ip), vehicle: saline sonified
  T/C: 109 % of control
endpoint: mean survival time, dose: 400.0 mg/kg/injection, schedule: Q01DX009 (ip), vehicle: Klucel (hydroxypropylcellulose) (HPC)
  T/C: 104 % of control
endpoint: mean survival time, dose: 400.0 mg/kg/injection, schedule: Q04DX003 (ip), vehicle: saline sonified
  T/C: 97 % of control

## O=C1CC2C3=C(CCC3)CCN2C2=C1CC(OC(=O)c1ccccc1)CC2 (centres undefined)
endpoint: mean survival time, dose: 12.5 mg/kg/injection, schedule: Q04DX003 (ip), vehicle: saline with Tween-80
  T/C: 90 % of control
[3]
  T/C: 88 % of control
[4]
  T/C: 94 % of control

## O=Cc1cc(Cl)cc(Cl)c1O
[5]
  T/C: 96 % of control
[6]
  T/C: 98 % of control

## CN(c1ccccc1Cl)S(C)(=O)=O
[5]
  T/C: 98 % of control
[6]
  T/C: 97 % of control
[7]
  T/C: 90 % of control

## COC1=CCC2=C(C1)CC(C)O2 (centres undefined)
endpoint: mean survival time, dose: 100.0 mg/kg/injection, schedule: Q01DX009 (ip), vehicle: acetone
  T/C: 102 % of control
endpoint: mean survival time, dose: 200.0 mg/kg/injection, schedule: Q01DX009 (ip), vehicle: acetone
  T/C: 107 % of control

## O=c1c(F)cn(-c2ccco2)c(=O)n1-c1ccco1
[6]
  T/C: 98 % of control
[7]
  T/C: 102 % of control

## O=C(NCCCl)NC1C(O)C(O)C(O)C(O)C1O (centres undefined)
endpoint: mean survival time, dose: 100.0 mg/kg/injection, schedule: Q01DX001 (ip), vehicle: saline with Tween-80
  T/C: 104 % of control
endpoint: mean survival time, dose: 200.0 mg/kg/injection, schedule: Q01DX001 (ip), vehicle: saline with Tween-80
  T/C: 98 % of control
endpoint: mean survival time, dose: 400.0 mg/kg/injection, schedule: Q01DX001 (ip), vehicle: saline with Tween-80
  T/C: 98 % of control

## O=[N+]([O-])c1cc2nsnc2cc1[N+](=O)[O-]
[5]
  T/C: 101 % of control
[6]
  T/C: 95 % of control
[7]
  T/C: 96 % of control

## CCOC(=O)C1=NN(c2ccccc2)C(=O)C1
[8]
  T/C: 94 % of control
[9]
  T/C: 94 % of control
[10]
  T/C: 92 % of control

## O=C(O)CC(=O)O.[NH-]CC[NH-].[Pt+2]
endpoint: mean survival time, dose: 25.0 mg/kg/injection, schedule: Q01DX009 (ip), vehicle: dextrose
  T/C: 100 % of control
endpoint: median survival time, dose: 40.0 mg/kg/injection, schedule: Q01DX009 (ip), vehicle: saline with Tween-80
  T/C: 89 % of control
endpoint: median survival time, dose: 50.0 mg/kg/injection, schedule: Q01DX001 (ip), vehicle: saline
  T/C: 111 % of control

## O=C(O)c1ccc2cc(O)ccc2c1
endpoint: mean survival time, dose: 100.0 mg/kg/injection, schedule: Q01DX009 (ip), vehicle: saline
  T/C: 100 % of control
endpoint: mean survival time, dose: 200.0 mg/kg/injection, schedule: Q01DX009 (ip), vehicle: saline
  T/C: 94 % of control

## CC(C)=CCCc1ccc2c(c1)C(=O)c1ccccc1C2=O
[11]
  T/C: 88 % of control
[12]
  T/C: 92 % of control
endpoint: mean survival time, dose: 400.0 mg/kg/injection, schedule: Q04DX002 (ip), vehicle: saline with Tween-80
  T/C: 96 % of control

## N#CSCc1ccccc1Cl
endpoint: mean survival time, dose: 2.5 mg/kg/injection, schedule: Q01DX009 (ip), vehicle: saline sonified
  T/C: 91 % of control
endpoint: mean survival time, dose: 5.0 mg/kg/injection, schedule: Q01DX009 (ip), vehicle: saline sonified
  T/C: 96 % of control
endpoint: mean survival time, dose: 5.0 mg/kg/injection, schedule: Q04DX003 (ip), vehicle: saline with Tween-80
  T/C: 95 % of control
endpoint: mean survival time, dose: 10.0 mg/kg/injection, schedule: Q01DX009 (ip), vehicle: saline sonified
  T/C: 96 % of control
endpoint: mean survival time, dose: 10.0 mg/kg/injection, schedule: Q04DX003 (ip), vehicle: saline with Tween-80
  T/C: 86 % of control

## c1ccc2c(c1)-c1ccccc1C1NC21 (centres undefined)
endpoint: median survival time, dose: 6.25 mg/kg/injection, schedule: Q01DX009 (ip), vehicle: saline with Tween-80
  T/C: 112 % of control
[13]
  T/C: 108 % of control
[14]
  T/C: 120 % of control

## Cc1ccc(S(=O)(=O)OCOS(=O)(=O)c2ccc(C)cc2)cc1
endpoint: median survival time, dose: 50.0 mg/kg/injection, schedule: Q01DX009 (ip), vehicle: Klucel (hydroxypropylcellulose) (HPC)
  T/C: 113 % of control
endpoint: median survival time, dose: 100.0 mg/kg/injection, schedule: Q01DX009 (ip), vehicle: Klucel (hydroxypropylcellulose) (HPC)
  T/C: 107 % of control and 111 % of control
endpoint: median survival time, dose: 200.0 mg/kg/injection, schedule: Q01DX009 (ip), vehicle: Klucel (hydroxypropylcellulose) (HPC)
  T/C: 122 % of control and 112 % of control
endpoint: median survival time, dose: 800.0 mg/kg/injection, schedule: Q01DX009 (ip), vehicle: Klucel (hydroxypropylcellulose) (HPC)
  T/C: 124 % of control and 103 % of control

## COc1ccc2c(c1O)CNCC2c1ccc(O)c(O)c1 (centres undefined)
endpoint: mean survival time, dose: 75.0 mg/kg/injection, schedule: Q01DX001 (ip), vehicle: saline
  T/C: 106 % of control
endpoint: mean survival time, dose: 150.0 mg/kg/injection, schedule: Q01DX001 (ip), vehicle: saline
  T/C: 106 % of control
endpoint: mean survival time, dose: 300.0 mg/kg/injection, schedule: Q01DX001 (ip), vehicle: saline
  T/C: 108 % of control

## CCOCc1cccc2ccccc12
[8]
  T/C: 98 % of control
[9]
  T/C: 102 % of control
[10]
  T/C: 94 % of control

## CCC(C)OC(=O)CCl (centres undefined)
endpoint: mean survival time, dose: 75.0 mg/kg/injection, schedule: Q01DX001 (ip), vehicle: other
  T/C: 97 % of control
endpoint: mean survival time, dose: 150.0 mg/kg/injection, schedule: Q01DX001 (ip), vehicle: other
  T/C: 96 % of control

## CCc1ccc(OC(C)=O)cc1
endpoint: mean survival time, dose: 50.0 mg/kg/injection, schedule: Q01DX009 (ip), vehicle: Klucel (hydroxypropylcellulose) (HPC)
  T/C: 98 % of control
[1]
  T/C: 98 % of control
[2]
  T/C: 90 % of control

## CN=C(N)N/N=C(\C)c1ccc2c(c1)Cc1ccccc1-2
[15]
  T/C: 102 % of control
[16]
  T/C: 105 % of control
[17]
  T/C: 108 % of control
[8]
  T/C: 97 % of control
[9]
  T/C: 91 % of control
[13]
  T/C: 101 % of control
[14]
  T/C: 106 % of control
endpoint: median survival time, dose: 50.0 mg/kg/injection, schedule: Q01DX009 (ip), vehicle: saline with Tween-80
  T/C: 103 % of control
endpoint: median survival time, dose: 100.0 mg/kg/injection, schedule: Q01DX009 (ip), vehicle: saline with Tween-80
  T/C: 101 % of control
endpoint: median survival time, dose: 200.0 mg/kg/injection, schedule: Q01DX009 (ip), vehicle: saline with Tween-80
  T/C: 106 % of control

## CCC(C(=O)O)C(=O)O.[NH-]CC[NH-].[Pt+2]
[3]
  T/C: 101 % of control
[4]
  T/C: 104 % of control
[5]
  T/C: 112 % of control

## O=C(NNC(=S)Nc1cccc(C(F)(F)F)c1)c1ccncc1
[15]
  T/C: 91 % of control
[16]
  T/C: 93 % of control
[17]
  T/C: 88 % of control
[11]
  T/C: 98 % of control
[12]
  T/C: 105 % of control

## CC(C)C(=O)C(C)(C)C(=O)N1CCCCC1
[8]
  T/C: 96 % of control
[9]
  T/C: 103 % of control
[10]
  T/C: 94 % of control

## CC1(C)OC2C(/C=N\O)OC(n3cnc4c(N)ncnc43)C2O1 (centres undefined)
endpoint: median survival time, dose: 12.5 mg/kg/injection, schedule: Q01DX005 (ip), vehicle: distilled water + Tween-80
  T/C: 98 % of control
endpoint: median survival time, dose: 25.0 mg/kg/injection, schedule: Q01DX005 (ip), vehicle: distilled water + Tween-80
  T/C: 90 % of control
endpoint: median survival time, dose: 50.0 mg/kg/injection, schedule: Q01DX005 (ip), vehicle: distilled water + Tween-80
  T/C: 96 % of control
endpoint: median survival time, dose: 100.0 mg/kg/injection, schedule: Q01DX005 (ip), vehicle: distilled water + Tween-80
  T/C: 101 % of control
endpoint: median survival time, dose: 200.0 mg/kg/injection, schedule: Q01DX005 (ip), vehicle: distilled water + Tween-80
  T/C: 101 % of control

Reference: PubChem BioAssay AID256 (DTP/NCI, 2004)
